Test results as given in patent US20160039880A1 (priority 2012, published 2016).
In brackets after ≈: the same amount, converted by molar mass. Like-named read-outs stand apart in the source and are kept apart here.

Key:
[1] = Water Solubility Assay (measured in pH 7.8 buffer); assay type: physicochemical;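 also: precipitation onset detected as rise in absorbance at 650 nm across increasing concentrations, after shaking for 18 h, blank wells receiving DMSO only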
[2] = target: Human recombinant cyclophilin A (Cyp A) (Homo sapiens, UniProt P62937); experiment: Protease-free PPIase assay;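 also: cis to trans isomerization of SUC-AAPF-pNA by 2 nM enzyme, read as absorbance at 330 nm over 300 s at 10 °C, catalytic rate corrected for uncatalyzed background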
[3] = 25 °C, pH 7.8, aqueous buffer, kinetic from dmso stock
[4] = read-out: Protease-free PPIase Assay Ki, cyclophilin A, 10 °C

Sequence of Human recombinant cyclophilin A (Cyp A) (P62937 whole entry): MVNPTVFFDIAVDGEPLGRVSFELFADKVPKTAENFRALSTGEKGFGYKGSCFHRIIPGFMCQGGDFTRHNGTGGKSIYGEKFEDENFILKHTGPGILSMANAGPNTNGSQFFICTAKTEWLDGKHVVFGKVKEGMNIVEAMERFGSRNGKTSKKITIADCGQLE

| SMILES | solubility at 18 h [1, 3] [µM] | Ki [2] [nM] | other results |
| --- | --- | --- | --- |
| CC[C@H]1NC(=O)[C@@H]([C@H](O)[C@H](C)CCN(C)c2ccccn2)N(C)C(=O)[C@@H](C(C)C)N(C)C(=O)[C@@H](CC(C)C)N(C)C(=O)[C@@H](CC(C)C)N(C)C(=O)[C@H](C)NC(=O)[C@@H](C)NC(=O)[C@@H](CC(C)C)N(C)C(=O)[C@@H](C(C)C)NC(=O)[C@H](CC(C)C)N(C)C(=O)[C@@H](C)N(C)C1=O [Compound DD, [(3R,4R,5S)-4-Hydroxy-3-methyl-5-(methylamino)-1-(methyl-pyridin-2-yl-amino)-hexanoic acid]^1[(R)-methyl-Sar]^3 cyclosporin A] | 25 to 50 (≈ 32.4 to 64.8 µg/mL) | 4.8 |  |
| CC[C@H]1NC(=O)[C@@H]([C@H](O)[C@H](C)CCN(C)CCOC)N(C)C(=O)[C@@H](C(C)C)N(C)C(=O)[C@@H](CC(C)C)N(C)C(=O)[C@@H](CC(C)C)N(C)C(=O)[C@H](C)NC(=O)[C@@H](C)NC(=O)[C@@H](CC(C)C)N(C)C(=O)[C@@H](C(C)C)NC(=O)[C@H](CC(C)C)N(C)C(=O)[C@@H](C)N(C)C1=O [Compound AG] |  |  | solubility at 18 h ([1]; 35 mM HEPES pH 7.8, 1% DMSO, 25 °C, 18 h, read-out: Water Solubility Assay, concentration at which the compound remains in solution): >100 µM; Ki [2, 4]: 18 nM |
| CC[C@H]1NC(=O)[C@@H]([C@H](O)[C@H](C)CCN(Cc2ccccn2)Cc2ccccn2)N(C)C(=O)[C@@H](C(C)C)N(C)C(=O)[C@@H](CC(C)C)N(C)C(=O)[C@@H](CC(C)C)N(C)C(=O)[C@H](C)NC(=O)[C@@H](C)NC(=O)[C@@H](CC(C)C)N(C)C(=O)[C@@H](C(C)C)NC(=O)[C@H](CC(C)C)N(C)C(=O)[C@@H](C)N(C)C1=O [Compound DB, [(3R,4R,5S)-1-(Bis{pyridin-2-ylmethyl}amino)-4-hydroxy-3-methyl-5-(methylamino)-hexanoic acid]^1[(R)-methyl-Sar]^3 cyclosporin A] |  | 7.4 | solubility at 18 h ([1]; 35 mM HEPES buffer pH 7.8, 25 °C, aqueous buffer, kinetic from dmso stock, pH 7.8 buffer, read-out: Water Solubility Assay): 75 to 100 µM (≈ 104 to 139 µg/mL) |
| CC[C@H]1NC(=O)[C@@H]([C@H](O)[C@H](C)CCN2CCOCC2)N(C)C(=O)[C@@H](C(C)C)N(C)C(=O)[C@@H](CC(C)C)N(C)C(=O)[C@@H](CC(C)C)N(C)C(=O)[C@H](C)NC(=O)[C@@H](C)NC(=O)[C@@H](CC(C)C)N(C)C(=O)[C@@H](C(C)C)NC(=O)[C@H](CC(C)C)N(C)C(=O)[C@@H](SC(C)C)N(C)C1=O [Compound I, [(3R,4R,5S)-4-Hydroxy-3-methyl-5-(methylamino)-1-N-morpholino-hexanoic acid]^1[(S)-thio-isopropyl-Sar]^3 cyclosporin A] | 25 to 50 (≈ 33.4 to 66.8 µg/mL) | 7.7 |  |
| CCC1NC(=O)C(C(O)C(C)CCN(CC)CC)N(C)C(=O)C(C(C)C)N(C)C(=O)C(CC(C)C)N(C)C(=O)C(CC(C)C)N(C)C(=O)C(C)NC(=O)C(C)NC(=O)C(CC(C)C)N(C)C(=O)C(C(C)C)NC(=O)C(CC(C)C)N(C)C(=O)C(C)N(C)C1=O [Compound M, [(3R,4R,5S)-4-hydroxy-3-methyl-5-(methylamino)-1-N-diethylamino-hexanoic acid]^1[(R)-Me-Sar]^3 cyclosporin A] |  |  | Water Solubility Assay, concentration at which the compound remains in solution ([1]; 35 mM HEPES pH 7.8, 1% DMSO, 25 °C, 18 h): 75 to 100 µM; Ki [2, 4]: 90 nM |
| CC[C@H]1NC(=O)[C@@H]([C@H](O)[C@H](C)CCN(C)c2ccccc2)N(C)C(=O)[C@@H](C(C)C)N(C)C(=O)[C@@H](CC(C)C)N(C)C(=O)[C@@H](CC(C)C)N(C)C(=O)[C@H](C)NC(=O)[C@@H](C)NC(=O)[C@@H](CC(C)C)N(C)C(=O)[C@@H](C(C)C)NC(=O)[C@H](CC(C)C)N(C)C(=O)[C@@H](C)N(C)C1=O [Compound DC, [(3R,4R,5S)-4-Hydroxy-3-methyl-5-(methylamino)-1-(methyl-phenyl-amino)-hexanoic acid]^1[(R)-methyl-Sar]^3 cyclosporin A] | 10 to 25 (≈ 13 to 32.4 µg/mL) | 6 |  |
| CC[C@H]1NC(=O)[C@@H]([C@H](O)[C@H](C)CCN2CC3CCC(C2)O3)N(C)C(=O)[C@@H](C(C)C)N(C)C(=O)[C@@H](CC(C)C)N(C)C(=O)[C@@H](CC(C)C)N(C)C(=O)[C@H](C)NC(=O)[C@@H](C)NC(=O)C(CC(C)C)N(C)C(=O)[C@@H](C(C)C)NC(=O)[C@H](CC(C)C)N(C)C(=O)[C@@H](C)N(C)C1=O (stereo partly drawn) [Compound DV, [(3R,4R,5S)-4-Hydroxy-3-methyl-5-(methylamino)-1-(8-oxa-3-aza-bicyclo[3.2.1]oct-3-yl)-hexanoic acid]^1[(R)-methyl-Sar]^3 cyclosporin A] | 50 to 75 (≈ 65.1 to 97.6 µg/mL) | 4.3 |  |
